Data as given in the NIST ThermoML archive (doi:10.1007/s10765-008-0535-5).

Test: wn = mass fraction of the nth substance listed
Details: Liquid, Pycnometric method, w2 = 0.5111

FC(F)C(F)(F)F [pentafluoroethane] + FCF
Details	mass density [kg/m3]
268.15 K, 3423 kPa	1190.3
269.15 K, 4259 kPa	1190.1
270.15 K, 5065 kPa	1189.9
270.15 K, 5095 kPa	1189.9
270.15 K, 5157 kPa	1190.1
271.15 K, 5903 kPa	1189.7
271.15 K, 5931 kPa	1189.7
271.15 K, 5992 kPa	1189.9
272.15 K, 6740 kPa	1189.6
272.15 K, 6767 kPa	1189.5
272.15 K, 6828 kPa	1189.7
273.15 K, 7576 kPa	1189.4
273.15 K, 7602 kPa	1189.3
273.15 K, 7662 kPa	1189.5
274.15 K, 8411 kPa	1189.2
274.15 K, 8437 kPa	1189.2
274.15 K, 8496 kPa	1189.3
275.15 K, 9245 kPa	1189
275.15 K, 9272 kPa	1189
275.15 K, 9328 kPa	1189.2
276.15 K, 10082 kPa	1188.8
276.15 K, 10107 kPa	1188.8
276.15 K, 10161 kPa	1189
277.15 K, 10917 kPa	1188.6
277.15 K, 10942 kPa	1188.6
277.15 K, 10993 kPa	1188.8
278.15 K, 11753 kPa	1188.4
278.15 K, 11776 kPa	1188.4
278.15 K, 11824 kPa	1188.6
279.15 K, 12587 kPa	1188.2
279.15 K, 12611 kPa	1188.2
279.15 K, 12657 kPa	1188.4
280.15 K, 13423 kPa	1188.1
280.15 K, 13444 kPa	1188.1
280.15 K, 13488 kPa	1188.2
281.15 K, 14258 kPa	1187.9
281.15 K, 14277 kPa	1187.9
281.15 K, 14319 kPa	1188.1
282.15 K, 15091 kPa	1187.7
282.15 K, 15110 kPa	1187.7
282.15 K, 15148 kPa	1187.9
283.15 K, 15926 kPa	1187.5
283.15 K, 15943 kPa	1187.6
283.15 K, 15978 kPa	1187.7
284.15 K, 16759 kPa	1187.4
284.15 K, 16775 kPa	1187.4
284.15 K, 16808 kPa	1187.6
285.15 K, 17592 kPa	1187.2
285.15 K, 17606 kPa	1187.2
285.15 K, 17637 kPa	1187.4
286.15 K, 18423 kPa	1187.1
286.15 K, 18437 kPa	1187.1
286.15 K, 18467 kPa	1187.2
287.15 K, 19253 kPa	1186.9
287.15 K, 19268 kPa	1186.9
287.15 K, 19297 kPa	1187.1
288.15 K, 20083 kPa	1186.7
288.15 K, 20097 kPa	1186.8
288.15 K, 20124 kPa	1186.9
289.15 K, 20914 kPa	1186.6
289.15 K, 20926 kPa	1186.6
289.15 K, 20951 kPa	1186.8
290.15 K, 21743 kPa	1186.4
290.15 K, 21755 kPa	1186.5
290.15 K, 21778 kPa	1186.6
291.15 K, 22571 kPa	1186.3
291.15 K, 22583 kPa	1186.3
291.15 K, 22607 kPa	1186.5
292.15 K, 23400 kPa	1186.2
292.15 K, 23410 kPa	1186.2
292.15 K, 23433 kPa	1186.4
293.15 K, 24226 kPa	1186
293.15 K, 24236 kPa	1186
293.15 K, 24257 kPa	1186.2
294.15 K, 25053 kPa	1185.9
294.15 K, 25062 kPa	1185.9
294.15 K, 25082 kPa	1186.1
295.15 K, 25878 kPa	1185.7
295.15 K, 25887 kPa	1185.7
295.15 K, 25903 kPa	1185.9
296.15 K, 5585 kPa	1097.9
296.15 K, 5620 kPa	1097.9
296.15 K, 5667 kPa	1097.9
296.15 K, 26704 kPa	1185.6
296.15 K, 26711 kPa	1185.6
296.15 K, 26725 kPa	1185.8
297.15 K, 6213 kPa	1097.7
297.15 K, 6246 kPa	1097.7
297.15 K, 6292 kPa	1097.7
297.15 K, 27528 kPa	1185.5
297.15 K, 27534 kPa	1185.5
297.15 K, 27546 kPa	1185.6
298.15 K, 6841 kPa	1097.5
298.15 K, 6872 kPa	1097.5
298.15 K, 6917 kPa	1097.6
298.15 K, 28352 kPa	1185.4
298.15 K, 28357 kPa	1185.3
